Data from US10179767B2 (GENENTECH, INC., priority 2015, dated 2019).
Structures can show the parent of a compound that is named as a salt.

target: T1, hNav1.7 (Homo sapiens, UniProt Q15858); test: Tritiated sulfonamide binding to membranes from cells expressing hNav1.7 and the β1 subunit (Nav 1.7 ligand binding assay, competitive); details: competition with 100 pM [3H]compound, room temperature, 18 h
T1 construct: expressed in transfected cells
Experimental: Tritiated Sulfonamide Binding to Membranes Isolated from Cells that Heterologously Express hNav1.7 and the β1 Subunit
Preparation of membranes containing recombinantly expressed sodium channels: Frozen recombinant cell pellets were thawed on ice and diluted to 4 times the cell pellet weight with ice cold 50 mM Tris HCl, pH 7.4 buffer. The cell suspensions were homogenized on ice using a motorized glass dounce homogeniser. Homogenates were further diluted 8.4 times with ice cold 50 mM Tris HCl, pH 7.4 buffer and then centrifuged at 200×g at 4° C. for 15 min. The supernatants were collected and centrifuged at 10000×g at 4° C. for 50 min. The pellets were then re-suspended in 100 mM NaCl, 20 mM Tris HCl, pH 7.4 buffer containing 1% v/v protease inhibitors (Calbiochem) and re-homogenized on ice. The homogenized membranes were then processed through a syringe equipped with a 26 gauge needle. Protein concentrations were determined by Bradford Assay and the membranes were stored at −80° C.
Radioligand Binding Studies:
Saturation experiments. A competitive NaV1.7 inhibitor having a methyl group was tritiated. Three tritiums were incorporated in place of methyl hydrogens to generate [^3H]compound. Binding of this radioligand was preformed in 5 mL borosilicate glass test tubes at room temperature. Binding was initiated by adding membranes to increasing concentrations of [^3H]compound in 100 mM NaCl, 20 mM Tris HCl, pH 7.4 buffer containing 0.01% w/v bovine serum albumin (BSA) for 18 h. Non-specific binding was determined in the presence of 1 μM unlabelled compound. After 18 h, the reactants were filtered through GF/C glass fiber filters presoaked in 0.5% w/v polyethylene imine Filters were washed with 15 mL ice cold 100 mM NaCl, 20 mM Tris HCl, pH7.4 buffer containing 0.25% BSA to separate bound from free ligand. [^3H]compound bound to filters was quantified by liquid scintillation counting.
Competitive Binding Experiments:
Binding reactions were preformed in 96-well polypropylene plates at room temperature for 18 h. In 360 μL, membranes were incubated with 100 pM [^3H]compound and increasing concentrations of Test Compound. Non-specific binding was defined in the presence of 1 μM unlabelled compound. Reactions were transferred and filtered through 96-well glass fiber/C filter plates presoaked with 0.5% polyethylene imine. The filtered reactions were washed 5 times with 200 μL ice cold buffer containing 0.25% BSA. Bound radioactivity was determined by liquid scintillation counting. Data Analysis: For saturation experiments, non-specific binding was subtracted from total binding to provide specific binding and these values were recalculated in terms of pmol ligand bound per mg protein. Saturation curves were constructed and dissociation constants were calculated using the single site ligand binding model: Beq=(Bmax*X)/(X+Kd), where Beq is the amount of ligand bound at equilibrium, Bmax is the maximum receptor density, Kd is the dissociation constant for the ligand, and X is the free ligand concentration. For competition studies percent inhibition was determined and IC50 values were calculated using a 4 parameter logistic model (% inhibition=(A+((B−A)/(1+((x/C)⨣D)))) using XLfit, where A and B are the maximal and minimum inhibition respectively, C is the IC50 concentration and D is the (Hill) slope.

T1 sequence (Q15858 whole entry): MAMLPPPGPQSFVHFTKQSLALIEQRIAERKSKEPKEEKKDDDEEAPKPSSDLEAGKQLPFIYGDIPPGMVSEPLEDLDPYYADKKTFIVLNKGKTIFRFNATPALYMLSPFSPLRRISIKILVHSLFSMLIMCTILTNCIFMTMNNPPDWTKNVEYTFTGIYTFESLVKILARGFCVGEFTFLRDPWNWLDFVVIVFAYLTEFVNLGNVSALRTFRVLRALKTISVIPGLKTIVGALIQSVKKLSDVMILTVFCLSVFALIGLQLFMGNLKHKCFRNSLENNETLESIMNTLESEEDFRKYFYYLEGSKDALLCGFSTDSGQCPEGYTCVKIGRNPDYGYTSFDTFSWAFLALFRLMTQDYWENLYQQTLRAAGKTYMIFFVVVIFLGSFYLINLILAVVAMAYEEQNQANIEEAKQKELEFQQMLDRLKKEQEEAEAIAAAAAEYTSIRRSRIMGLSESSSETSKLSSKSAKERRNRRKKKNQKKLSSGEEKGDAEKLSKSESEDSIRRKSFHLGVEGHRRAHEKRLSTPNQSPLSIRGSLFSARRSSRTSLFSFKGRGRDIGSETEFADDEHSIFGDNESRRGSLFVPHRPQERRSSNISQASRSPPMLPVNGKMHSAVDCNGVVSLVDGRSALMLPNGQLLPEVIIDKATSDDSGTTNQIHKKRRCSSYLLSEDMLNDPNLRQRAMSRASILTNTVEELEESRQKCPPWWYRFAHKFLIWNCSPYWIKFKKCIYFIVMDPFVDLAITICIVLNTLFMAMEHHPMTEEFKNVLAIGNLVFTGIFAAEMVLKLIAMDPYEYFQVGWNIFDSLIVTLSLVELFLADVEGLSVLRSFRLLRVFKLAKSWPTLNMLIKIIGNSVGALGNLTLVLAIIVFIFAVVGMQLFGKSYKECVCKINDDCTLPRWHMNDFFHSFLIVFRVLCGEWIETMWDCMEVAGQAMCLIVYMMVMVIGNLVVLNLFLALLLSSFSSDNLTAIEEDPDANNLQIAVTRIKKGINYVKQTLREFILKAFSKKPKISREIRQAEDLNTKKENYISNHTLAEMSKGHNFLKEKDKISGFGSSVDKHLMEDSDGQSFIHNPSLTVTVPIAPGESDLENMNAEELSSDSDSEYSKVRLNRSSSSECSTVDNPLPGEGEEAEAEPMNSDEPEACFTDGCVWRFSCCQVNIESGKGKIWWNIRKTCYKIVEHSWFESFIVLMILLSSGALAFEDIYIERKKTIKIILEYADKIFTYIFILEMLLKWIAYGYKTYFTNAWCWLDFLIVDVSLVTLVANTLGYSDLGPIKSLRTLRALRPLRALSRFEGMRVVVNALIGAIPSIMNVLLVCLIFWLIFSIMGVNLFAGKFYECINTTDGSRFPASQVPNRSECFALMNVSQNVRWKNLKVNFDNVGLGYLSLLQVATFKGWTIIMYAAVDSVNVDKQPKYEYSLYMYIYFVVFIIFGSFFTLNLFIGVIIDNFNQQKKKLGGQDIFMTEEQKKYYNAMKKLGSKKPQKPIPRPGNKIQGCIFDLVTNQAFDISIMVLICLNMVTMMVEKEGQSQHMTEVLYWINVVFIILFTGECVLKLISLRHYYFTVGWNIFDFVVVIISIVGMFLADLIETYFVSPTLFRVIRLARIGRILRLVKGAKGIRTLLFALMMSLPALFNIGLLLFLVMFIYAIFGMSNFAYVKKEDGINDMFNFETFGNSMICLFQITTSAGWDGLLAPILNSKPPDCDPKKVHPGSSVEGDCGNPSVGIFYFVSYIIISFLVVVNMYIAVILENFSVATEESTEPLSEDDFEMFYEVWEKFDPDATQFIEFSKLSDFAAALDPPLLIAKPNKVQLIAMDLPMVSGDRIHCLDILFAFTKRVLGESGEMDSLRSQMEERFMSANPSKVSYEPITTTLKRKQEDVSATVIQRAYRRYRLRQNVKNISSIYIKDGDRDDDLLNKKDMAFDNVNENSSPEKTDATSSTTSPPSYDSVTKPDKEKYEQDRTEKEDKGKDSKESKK
T1 sequence (Q07699 19-218 partner): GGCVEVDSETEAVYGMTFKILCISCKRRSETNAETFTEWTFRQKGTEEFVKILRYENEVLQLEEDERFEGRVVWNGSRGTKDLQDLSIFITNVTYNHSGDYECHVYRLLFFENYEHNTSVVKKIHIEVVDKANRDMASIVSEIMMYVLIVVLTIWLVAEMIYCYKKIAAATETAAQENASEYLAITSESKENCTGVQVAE

Row | SMILES | IC50 [nM]
1 | CCS(=O)(=O)NC(=O)c1cc(C2CC2)c(OCC2CCN([C@@H](C)c3cc(Cl)cc(Cl)c3F)CC2)cc1F (single isomer, unassigned) [Example 32] | 5.1
2 | CS(=O)(=O)NC(=O)c1cc(C2CC2)c(O[C@H]2CN(Cc3ccc(F)cc3Cl)CC[C@@H]2F)cc1F (relative stereo) [Example 45, trans 4-((1-(2-chloro-4-fluorobenzyl)-4-fluoropiperidin-3-yl)oxy)-5-cyclopropyl-2-fluoro-N-(methylsulfonyl)benzamide] | 83
3 | CS(=O)(=O)NC(=O)c1cc(C2CC2)c(OCC2(F)CCN(Cc3cc(C(F)(F)F)ccc3Cl)CC2)cc1F [Example 63, 4-((1-(2-chloro-5-(trifluoromethyl)benzyl)-4-fluoropiperidin-4-yl)methoxy)-5-cyclopropyl-2-fluoro-N-(methylsulfonyl)benzamide] | 7
4 | CC(c1cc(Cl)cc(Cl)c1)N1CCC2(CC1)CC(Oc1cc(F)c(C(=O)NS(C)(=O)=O)cc1C1CC1)C2 (centres unmarked) [Example 48, 5-cyclopropyl-4-((7-(1-(3,5-dichlorophenyl)ethyl)-7-azaspiro[3.5]nonan-2-yl)oxy)-2-fluoro-N-(methylsulfonyl)benzamide] | 9
5 | COC1(COc2cc(F)c(C(=O)NS(C)(=O)=O)cc2C2CC2)CCN([C@@H](C)c2cc(Cl)cc(Cl)c2)CC1 (single isomer, unassigned) [Example 5] | 9.2
6 | CC(c1cc(Cl)cc(Cl)c1)N1CCC(COc2ccc(C(=O)NS(C)(=O)=O)cc2C2CC2)CC1 (centres unmarked) [Example 61, 3-cyclopropyl-4-((1-(1-(3,5-dichlorophenyl)ethyl)piperidin-4-yl)methoxy)-N-(methylsulfonyl)-benzamide] | 10
7 | CS(=O)(=O)NC(=O)c1cc(C2CC2)c(OCC2(O)CCN(Cc3cc(Cl)cc(Cl)c3)CC2)cc1F [Example 6, 5-Cyclopropyl-4-((1-(3,5-dichlorobenzyl)-4-hydroxypiperidin-4-yl)methoxy)-2-fluoro-N-(methylsulfonyl)benzamide] | 10
8 | COC1(COc2cc(F)c(C(=O)NS(=O)(=O)C3CC3)cc2C2CC2)CCN(Cc2cc(Cl)cc(Cl)c2)CC1 [Example 9, 5-Cyclopropyl-N-(cyclopropylsulfonyl)-4-((1-(3,5-dichlorobenzyl)-4-methoxypiperidin-4-yl)methoxy)-2-fluorobenzamide] | 5.7
9 | C[C@@H](c1ccc(F)cc1Cl)N1CCC(F)(COc2cc(F)c(C(=O)NS(C)(=O)=O)cc2C2CC2)CC1 (single isomer, unassigned) [Example 18] | 10
10 | COCC(c1cc(Cl)cc(Cl)c1F)N1CCC(COc2cc(F)c(C(=O)NS(C)(=O)=O)cc2C2CC2)CC1 (centres unmarked) [Example 21, 5-cyclopropyl-4-((1-(1-(3,5-dichloro-2-fluorophenyl)-2-methoxyethyl)piperidin-4-yl)methoxy)-2-fluoro-N-(methylsulfonyl)benzamide] | 4.4
11 | C[C@H](c1ccc(F)cc1Cl)N1CCC(F)(COc2cc(F)c(C(=O)NS(C)(=O)=O)cc2C2CC2)CC1 (single isomer, unassigned) [Example 19] | 6
12 | CC(C)(C#N)[C@@H](c1cc(Cl)cc(Cl)c1)N1CCC(COc2cc(F)c(C(=O)NS(C)(=O)=O)cc2C2CC2)CC1 (single isomer, unassigned) [Example 12] | 3.9
13 | C[C@@H](c1cc(Cl)cc(Cl)c1)N1CCC(COc2cc(F)c(C(=O)NS(=O)(=O)C3(F)CC3)cc2C2CC2)CC1 [Example 57, (S)-4-((2-cyclopropyl-5-fluoro-4-(((1-fluorocyclopropyl)sulfonyl)carbamoyl)phenoxy)methyl)-1-(1-(3,5-dichlorophenyl)ethyl)piperidin-1-ium trifluoroacetate] | 8.6
14 | CS(=O)(=O)NC(=O)c1cc(C2CC2)c(OCC2(F)CCN(Cc3ccc(Cl)cc3Cl)CC2)cc1F [Example 20, 5-Cyclopropyl-4-((1-(2,4-dichlorobenzyl)-4-fluoropiperidin-4-yl)methoxy)-2-fluoro-N-(methylsulfonyl)benzamide] | 3.5
